According to patent publication US20140106390A1, “BIOMARKERS FOR THE TREATMENT OF MULTIPLE MYELOMA” (CELGENE CORPORATION, priority 2011, published 2014):

Tests used:
[1] = compared with the racemic mixture; cited from earlier work
[2] = Phase Ib ascending dose study of pomalidomide (MTD); assay type: in vivo; settings: 45 relapsed and refractory multiple myeloma patients
Description: M-protein measurements entered from data with pomalidomide in relapsed and refractory multiple myeloma patients consists of one completed and two ongoing studies. In a Phase Ib ascending dose study in 45 patients, the MTD of pomalidomide was 2 mg administered daily or 5 mg administered on an every other day schedule. These subjects tolerated alternate day dosing better than daily dosing based on dose-limiting toxicity (DLT), however, the AE profiles were similar for both dosing regimens.

[3] = tested on: serum M-protein; test: Tumor growth inhibition (TGI) model for pomalidomide single agent fitted to serum M-protein data, Phase I/II pomalidomide study; assay type: in vivo, patients; settings: population estimate
Description: The Phase I segment investigates whether pomalidomide single agent dose could be escalated up to 5 mg daily using the cyclic schedule. The Phase II segment has progression free survival (PFS) as the primary endpoint and an interim analysis is planned at 50% of the events.
A semi-mechanistic exposure-driven tumor growth inhibition (TGI) model was used to model serum M-protein data (taken as a marker of tumor size) as function of time and drug dose levels. The TGI model is described by the following differential equation system: […]
where y(t) is the at time t with y0 value at baseline (g/L),
KL, is the rate of M-protein level increase (tumor growth rate) (week^−1),
KD, is the rate of drug-induced M-protein decrease (drug potency, mg^−1.week^−1)
KD decreases with time (from KD,0 at time 0, full effect) with the rate constant λ, (week^−1)
D (t) is the amount of drug at the site of action (mg) (“KPD model”) (see Jacqim et al., J. Pharmacokinet. Pharmacodyn. (2007), 31: 57-85),
Kp is the elimination rate constant from the virtual biophase compartment (week^−1).
Model parameters were estimated by maximum likelihood in non-linear mixed effect model using NONMEM VI level 1.0 FOCE method with interaction (Beal et al., NONMEM user's guide. (1992) San Francisco: University of California at San Francisco NONMEM Project Group). […]

Row | SMILES | potency [1] | MTD ([2]; administered daily) | MTD ([2]; administered on an every other day schedule) | λ, rate constant of decrease of KD with time (resistance appearance), estimate [3] | KL, rate of M-protein level increase (tumor growth rate), estimate ([3]; 37 patients)
1 | Nc1cccc2c1C(=O)N([C@H]1CCC(=O)NC1=O)C2=O [(S)-isomer of 4-(amino)-2-(2,6-dioxo(3-piperidyl))-isoindoline-1,3-dione, (S)-4-(amino)-2-(2,6-dioxo(3-piperidyl))-isoindoline-1,3-dione] | higher potency than the racemic mixture | – | – | – | –
2 | Nc1cccc2c1C(=O)N(C1CCC(=O)NC1=O)C2=O (centres unmarked) [pomalidomide, 4-amino-2-(2,6-dioxopiperidin-3-yl)isoindole-1,3-dione] | – | 2 mg | 5 mg | 0.128 wk^−1 | 0.036 wk^−1
